This data set is described as follows: in vitro. The following applies: human, hela cells, % viability.

Take `Cc1cc(C)n(C2CN(CC(=O)NCc3ccccn3)C2)n1` [CBK306238]: the viability at 28.5 h, 10 µM was 88.3%. Turning to `Cc1cc(Cl)c(S(=O)(=O)N2CCCC2)cc1OCC(=O)NC1CCCCC1` [CBK266781], the viability at 28.5 h, 10 µM amounted to 93.9%. Consider `Oc1cccc(Sc2cncc(N3CCCC3)n2)c1` [CBK093796], for which the viability at 28.5 h, 10 µM was determined as 106%.

For `Cc1cc(OC(=O)C2CCC(CNC(=O)OC(C)(C)C)CC2)c2c3c(c(=O)oc2c1)CCC3` (centres unmarked) [CBK083583], the viability at 28.5 h, 10 µM worked out at 103%. As to `Cc1nn(C)c(Sc2ccccc2)c1[N+](=O)[O-]` [CBK002937], the viability at 28.5 h, 10 µM came out at 97.9%. On to `O=C(O)/C(O)=C/C(=O)c1ccc(Cl)cc1` [CBK261841], for which the viability at 28.5 h, 10 µM amounted to 111%. On to `Cc1cc2ncn(CC(=O)N3CCc4ccccc43)c2cc1C` [CBK200270], for which the viability at 28.5 h, 10 µM is 114%. The same measure, in the same setting: the result for `O=C(Nc1ccc(Cc2ccncc2)cc1)c1ccc(-c2cc3ccccc3oc2=O)cc1` [CBK268952] reads 121%; that for `C[C@]1(CO)[C@H]2Cc3sc(-c4ccccc4)nc3[C@@H](CC(=O)O)[C@]2(C)CC[C@H]1O` [CBK289572], 84.5%. For `O=[N+]([O-])c1ccc(Sc2nnc(-c3cccs3)n2CC2CCCO2)cn1` (centres unmarked) [CBK297483], the viability at 28.5 h, 10 µM worked out at 94.6%.

In the case of `CC(C(=O)N1CCCC(COc2ccc(F)cc2)C1)n1ccnc1` (centres unmarked) [CBK282027], the viability at 28.5 h, 10 µM came to 85.8%. Turning to `O=C(N[C@@H](Cn1cc(F)c(=O)[nH]c1=O)C(=O)O)C1CCCCC1` [CBK289661], the viability at 28.5 h, 10 µM amounted to 89.2%. With `COc1cccc2cc(C(=O)NCc3c(F)cccc3F)oc12` [CBK149794], the viability at 28.5 h, 10 µM is 65%.

As to `COc1ccc(N2C(=O)CSC23C(=O)Nc2ccc(Br)cc23)cc1` (centres unmarked) [CBK093454], the viability at 28.5 h, 10 µM was 96.6%.

For the compound `O=C(O)CCC(=O)Nc1ccc(-c2nc3ccccc3o2)cc1` [CBK261330], the viability at 28.5 h, 10 µM worked out at 98%.

As to `O=S(=O)(Nc1ccc2[nH]ncc2c1)c1ccc(Oc2ccccc2)cc1` [CBK062522], the viability at 28.5 h, 10 µM came out at 82.9%.

Consider `Cc1c(C(C)NCCc2nnc[nH]2)cnn1-c1ccc(C#N)cc1` (centres unmarked) [CBK304063], for which the viability at 28.5 h, 10 µM is 98.1%. Regarding `COC(=O)c1ccccc1NC(=O)CNC(=O)c1ccccc1Cl` [CBK269113], the viability at 28.5 h, 10 µM came to 88.8%. Same read-out and setting: the result for `CN(CC(=O)Nc1ccccc1-c1ccccc1)S(=O)(=O)c1ccc2ccccc2c1` [CBK267432] reads 104%; that for `Cc1cccc(CSc2nc3ncccc3[nH]2)c1` [CBK287963], 96.9%; that for `Nc1nc2c([C@@H]3O[C@H](CO)[C@H](O)C3O)c[nH]c2c(=O)[nH]1` (some centres unmarked) [CBK201292], 94.5%. Turning to `O=C(CCc1nc(=O)c2c3c(sc2[nH]1)CCC3)N1CCCCCC1` [CBK306388], the viability at 28.5 h, 10 µM came to 90.4%. As for `COc1cc(OC)c(NC(=O)c2c(-c3ccccc3)noc2C)cc1Cl` [CBK268167], the viability at 28.5 h, 10 µM was 101%. For the compound `CN(C)C(=O)CSc1nc2cc(Cl)ccc2c(=O)n1CC1CCCO1` (centres unmarked) [CBK305932], the viability at 28.5 h, 10 µM turned out to be 97.3%.

In the case of `CC(=O)Nc1ccc(S(=O)(=O)N2CCN(C(=O)COc3ccc4ccccc4c3)CC2)cc1` [CBK264164], the viability at 28.5 h, 10 µM stood at 103%. As for `Nc1ccc2nc(CCCCCC(=O)O)sc2c1` [CBK016399], the viability at 28.5 h, 10 µM came to 114%. The same measure, in the same setting: the result for `CCCc1nn(CC(=O)OC)c(=O)c2cc3ccsc3n12` [CBK284144] reads 98.7%; that for `O=C1CC(C(=O)O)CN(c2cccs2)C1` (centres unmarked) [CBK021796], 92.8%. For `Cc1ccc(C(F)(F)F)cc1NCc1csc(C2CCCO2)n1` (centres unmarked) [CBK305424], the viability at 28.5 h, 10 µM stood at 92.8%.

Consider `CCc1ccc(C(O)CNC2CCN(CC(F)F)CC2)cc1` (centres unmarked) [CBK304144], for which the viability at 28.5 h, 10 µM turned out to be 109%. As to `CCC(C)NC(=O)Cn1c(C2CCOCC2)cc2cc(C)cnc21` (centres unmarked) [CBK284756], the viability at 28.5 h, 10 µM was 94.3%.

Turning to `O=S(=O)(Cc1ccccc1)Nc1cccc2[nH]ccc12` [CBK159490], the viability at 28.5 h, 10 µM is 76.6%. The same measure, in the same setting: in the case of `O=C(CCCOc1ccc(Cl)cc1Cl)Nc1ccc(O)cc1C(=O)O` [CBK131688] it was 104%; in that of `O=C(CSCCO)Nc1ccc(N2CCOCC2)cc1` [CBK269616], 89.7%; in that of `CC1CN(C(=O)c2ccccc2)CC(C)N1CCCCc1ccc(F)cc1` (centres unmarked) [CBK025019C], 97.9%. Turning to `O=[N+]([O-])c1ccc(S(=O)(=O)CC(CN2CCCC2)N2CCCC2)cc1` (centres unmarked) [CBK266991], the viability at 28.5 h, 10 µM came to 112%. Turning to `O=C(CSCc1ccccc1)Nc1ccc(O)cc1C(=O)O` [CBK126817], the viability at 28.5 h, 10 µM is 103%. With `O=C(O)CCCc1[nH]nc(O)c1Cc1c(Cl)cccc1Cl` [CBK081137], the viability at 28.5 h, 10 µM came out at 105%.

As for `O=C(Oc1ccccc1)N1CCC(n2c(=O)[nH]c3ccccc32)CC1` [CBK149865], the viability at 28.5 h, 10 µM stood at 89%. Same read-out and setting: in the case of `COc1ccc(-c2cc(C(=O)Nc3cccc(C(=O)O)c3)cnc2-c2ccc(F)cc2)cn1` [CBK038064] it was 91.3%. Turning to `CC(Oc1ccccc1)C(=O)Nc1nn(Cc2ccc(S(=O)(=O)N3CCCC3)cc2)c2ccccc12` (centres unmarked) [CBK061595], the viability at 28.5 h, 10 µM was 102%. `COc1cc(Cl)cc(C2NC(=S)NC(c3ccccc3)=C2C(=O)c2ccccc2)c1OCC(=O)O` (centres unmarked) [CBK266332]: the viability at 28.5 h, 10 µM was found to be 106%. For the compound `CCc1nc(CN2CCN(C(=O)Nc3ccccc3C)CC2)cs1` [CBK305817], the viability at 28.5 h, 10 µM turned out to be 87.5%. Same read-out and setting: in the case of `COc1cc(OC)cc(-c2nnc(SCc3cccc(C(=O)O)c3)[nH]2)c1` [CBK268736] it was 108%; in that of `O=C(CSc1nc2ccccc2[nH]1)c1ccccc1` [CBK261298], 92.9%.

For `O=C(Nc1ccccc1)[C@H]1O[C@H](CCN2CCN(c3ccccn3)CC2)CC[C@@H]1O` [CBK288726], the viability at 28.5 h, 10 µM came out at 87.9%. As to `O=C(NC1CCN(Cc2c(F)cccc2Cl)CC1)c1cccs1` [CBK057035], the viability at 28.5 h, 10 µM was 100%. Take `CC(C)NC(=O)CSc1nc2ccccc2[nH]1` [CBK072235]: the viability at 28.5 h, 10 µM amounted to 92.9%. Take `O=C(c1ccccc1-n1cccc1)N1CCCC1` [CBK149608]: the viability at 28.5 h, 10 µM turned out to be 81.6%. Consider `CC(C)NC(=O)Nc1ccccc1-c1ncn(C)n1` [CBK020922], for which the viability at 28.5 h, 10 µM came out at 95.6%.

Consider `FC(F)(F)c1cccnc1OCCCc1ccncc1` [CBK115782], for which the viability at 28.5 h, 10 µM is 93.9%. For the compound `COc1ccc(OCCCOc2ccccc2C(C)C)cc1` [CBK026366], the viability at 28.5 h, 10 µM was determined as 90.8%. As for `O=C(NCc1c(OC(=O)c2cccc([N+](=O)[O-])c2)ccc2ccccc12)c1ccccc1` [CBK260919], the viability at 28.5 h, 10 µM came out at 81.1%. Turning to `O=C(CCN1CCN2CCCCC2C1)N1c2ccccc2Sc2ccc(Cl)cc21` (centres unmarked) [CBK278257F], the viability at 28.5 h, 10 µM amounted to 86.3%. Regarding `CC(C)c1ccc(S(=O)(=O)Nc2ccc(C(=O)O)c(O)c2)cc1` [CBK299819], the viability at 28.5 h, 10 µM is 104%.

Take `CCc1noc(CN2CCC(c3c[nH]c4ccc(OC)cc34)CC2)n1` [CBK305960]: the viability at 28.5 h, 10 µM is 84.1%.

As to `O=C1NC(=O)C(=Cc2cc(Br)ccc2OCc2cccc(F)c2)C(=O)N1` [CBK264160], where the note is “bulk resorufin, single well”, the viability at 28.5 h, 10 µM was found to be 104%. For the compound `O=C(NC1CCCOC1)c1cc(-c2cccs2)no1` (centres unmarked) [CBK282565], the viability at 28.5 h, 10 µM worked out at 82%.

Take `COc1cccc(C2Nc3ccc4ccccc4c3C3=C2C(=O)CC(C)(C)C3)c1OCC(=O)O` (centres unmarked) [CBK263045]: the viability at 28.5 h, 10 µM amounted to 89.8%. In the case of `Cc1ccc2c(c1)cc(C(=O)N1CCCC(C)(C(=O)NC3CCCC3)C1)n2C` (centres unmarked) [CBK286076], the viability at 28.5 h, 10 µM stood at 81.3%. Turning to `O=S(=O)(CCN1CCN(C(c2ccccc2)c2ccccc2)CC1)c1ccc(Cl)cc1` [CBK074810], the viability at 28.5 h, 10 µM turned out to be 92%.

For `CC(O)(CC(=O)O)C12CC3CC(CC(C3)C1)C2` (centres unmarked) [CBK261245], the viability at 28.5 h, 10 µM is 114%. As for `COc1cccc2c1OCCC2CNCCCc1ccccc1` (centres unmarked) [CBK007716], for the setting “bulk resorufin, single well”, the viability at 28.5 h, 10 µM came out at 91.8%. On to `Oc1nsnc1-c1ccccc1` [CBK026014], for which the viability at 28.5 h, 10 µM was determined as 95%. As to `N=C(N)SCc1ccc(CSC(=N)N)cc1` [CBK278309C], the viability at 28.5 h, 10 µM was 84.5%. For `CCOC(=O)c1cnn(C2CCCN(Cc3cc(C#N)cs3)C2)c1` (centres unmarked) [CBK305399], the viability at 28.5 h, 10 µM turned out to be 101%.

With `Fc1ccc2c3c([nH]c2c1)C1(CCN(Cc2cc(F)c(F)c(F)c2)CC1)NCC3` [CBK039688], the viability at 28.5 h, 10 µM is 108%.

Take `COc1ccccc1C(=O)N1CCC(Cc2cccc(-c3cccs3)c2)(C(N)=O)CC1` [CBK285742]: the viability at 28.5 h, 10 µM was found to be 99.8%. On to `Cc1ccc(CNC(=O)COc2ccc(S(=O)(=O)N3CCOCC3)cc2)cc1` [CBK269816], for which the viability at 28.5 h, 10 µM was 87.8%. In the case of `O=C(O)C1CCCN1S(=O)(=O)c1ccc2[nH]c(=O)c(=O)[nH]c2c1` (centres unmarked) [CBK266971], the viability at 28.5 h, 10 µM came to 88.9%.

With `CC(C)(C)c1ccc(S(=O)(=O)N2CCNC(=O)C2)cc1` [CBK051238], the viability at 28.5 h, 10 µM was found to be 88.9%. As for `CCOC(=O)CNC(=O)c1cc2ccccc2c(=O)o1` [CBK058083], the viability at 28.5 h, 10 µM was 97.9%.

Take `O=C1NC2=C(C(=O)N(CC3CCCO3)C2)C(c2ccccc2)N1` (centres unmarked) [CBK283494]: the viability at 28.5 h, 10 µM was 100%. Turning to `Cc1ccc(Nc2nc(N)nc(CSc3nccn3C)n2)cc1` [CBK266468], the viability at 28.5 h, 10 µM amounted to 113%. Consider `Cc1cccc(C(=O)Oc2ccc(C(c3c(C)n[nH]c3O)c3c(C)n[nH]c3O)cc2)c1` [CBK264804], for which the viability at 28.5 h, 10 µM is 102%. `Cc1ccc(CCC(=O)NNc2ccccc2)o1` [CBK260924]: the viability at 28.5 h, 10 µM was found to be 90.5%.

For the compound `CCOC(=O)Cn1nnc(-c2ccc(Cl)cc2)n1` [CBK069596], the viability at 28.5 h, 10 µM came to 95.8%. As for `CN(C)CC(=O)N1c2ccccc2CCc2ccc(NC(=O)c3ccc([N+](=O)[O-])cc3)cc21` [CBK278207C], the viability at 28.5 h, 10 µM turned out to be 87.4%. Regarding `O=c1n(Cc2ccncc2)nc(C(F)(F)F)c2cccn12` [CBK283966], the viability at 28.5 h, 10 µM was 87%. With `c1ccc(CC(NCc2c[nH]c3ccccc23)c2ccccc2)cc1` (centres unmarked) [CBK262087], the viability at 28.5 h, 10 µM came to 96.4%.

For the origin of these results see paper PMC12040169 (PLOS Biology, 2025).
